Where “and” joins values, the source holds several entries; their conditions need not be identical. Equal values may be shown once.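 Grown in 96-well plates, cells were treated for 48 hours with each compound at five concentrations. Insufficient inhibition: endpoint recorded as highest concentration tested. GI50: concentration for 50% inhibition of growth. TGI: concentration producing complete growth inhibition.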

Common to all, as to assay: NCI anticancer screen, dose series, 48 h
Test [1] relates to IGROV1 ovarian.
Test [2] concerns MDA-MB-435.
Test [3] deals with UO-31 renal.
The subject of test [4] is SK-MEL-5 melanoma.
Test [5] has as its system SK-MEL-2 melanoma.
Test [6] relates to SF-268 CNS.
In test [7] the test system is HCT-116 colon.
The test system of test [8] is SR leukemia.

Take `C=C(Br)COc1ccc2c(C)cc(=O)oc2c1`: the TGI in test [1] is above 100 µM; in test [2] it was above 100 µM; in test [3], above 100 µM; in test [4], 37.4 µM; in test [5], above 100 µM; in test [6], above 100 µM. In addition, the TGI in test [7] and in test [8] was above 100 µM throughout.

On to `COCCn1c2c([n+](Cc3cnccn3)c1C)C(=O)c1ccccc1C2=O`, for which the GI50 was below 0.01 µM in test [1]; below 0.01 µM in test [2]; 0.844 µM in test [3]; below 0.01 µM in test [4]; below 0.01 µM in test [5]; below 0.01 µM in test [6]. The GI50 in test [7] is below 0.01 µM; in test [8], below 0.0108 µM. The TGI in test [1] is below 0.0169 µM; in test [2] it was below 0.01 µM; in test [3], above 78.5 µM; in test [4], 0.0162 µM; in test [5], 0.0127 µM; in test [6] it was below 0.01 µM. For the same compound, the TGI in test [7] worked out at 0.0106 µM; in test [8] it was 6.85 µM.

Take `c1ccc(CC(Nc2cccnc2)c2ccccc2)cc1` (stereo unspecified): the TGI in test [1] was above 100 µM; in test [2] it was 64.4 µM; in test [3], 45 µM; in test [4] it was 29.4 µM; in test [5] it was 36 µM; in test [6], above 100 µM. Also, the values for the TGI in test [7] and in test [8] were 30.1 µM and 50.9 µM, respectively.

Consider `COC(=O)[C@]12CC[C@@H](C)[C@H](C)[C@@H]1C1=CC[C@@H]3[C@@](C)(CC#N)C4=C(C[C@@]3(C)[C@]1(C)CC2)OC[C@]4(C)C=O`, for which the GI50 was 5.28 µM in test [1]; 4.39 µM in test [2]; 3.07 µM in test [3]; 3.3 µM in test [4]; 4.31 µM in test [5]; 4.38 µM in test [6]. For the same compound, the GI50 was 2.78 µM in test [7] and 2.56 µM in test [8]. Also, the TGI in test [1] was above 100 µM; in test [2], 44.1 µM; in test [3] it was 39.5 µM; in test [4] it was 11 µM; in test [5] it was 18 µM; in test [6] it was above 100 µM. Besides, the TGI worked out at 10.7 µM in test [7] and 7.44 µM in test [8].

For the compound `CC(=O)Nc1cc2c3c(cccc3c1)-c1ccccc1-2`, the GI50 in test [1] is 24.2 µM; in test [2], 30 µM; in test [3], 0.356 µM; in test [4], above 100 µM; in test [5], 70 µM; in test [6] it was 8.94 µM. For the same compound, the GI50 was above 100 µM in test [7] and 28.6 µM in test [8]. The TGI in test [1] is above 100 µM; in test [2] it was above 100 µM; in test [3] it was 15.3 µM; in test [4] it was above 100 µM; in test [5], above 100 µM; in test [6] it was above 100 µM. Besides, the TGI in test [7] and in test [8] was above 100 µM throughout.

Regarding `O=C(/C=C/C=C/c1ccc2c(c1)OCO2)N/N=C\c1ccc(O)cc1O`, the GI50 was 2.23 µM in test [1]; 4.35 µM in test [2]; 1.47 µM in test [3]; 1.63 µM in test [4]; 5.51 µM in test [5]; 1.73 µM in test [6]. For the same compound, the GI50 in test [7] is 2.02 µM; in test [8], 0.571 µM. For the same compound, the TGI in test [1] was found to be 14.3 µM; in test [2], 19 µM; in test [3], 8.75 µM; in test [4], 3.87 µM; in test [5], 27 µM; in test [6], 17.1 µM. Also, the values for the TGI in test [7] and in test [8] were 14.5 µM and above 100 µM, respectively.

For the compound `CCn1ncc(N=O)c1N`, the TGI in test [1], in test [2], in test [3], in test [4], in test [5] and in test [6] was above 100 µM throughout. Moreover, the TGI in test [7] and in test [8] was above 100 µM throughout.

As to `COc1cc(C2CC(c3cccc(Nc4ccnc5cc(Cl)ccc45)c3)=NN2c2ccccc2)cc(OC)c1OC` (stereo unspecified), the GI50 in test [1] was 29.2 µM; in test [2], 1.47 µM; in test [3] it was 1.68 µM; in test [4], 4.56 µM; in test [5] it was 8.78 µM; in test [6], 75.5 µM. Also, the GI50 was 6.51 µM in test [7] and 5.49 µM in test [8]. Moreover, the TGI was above 100 µM in test [1]; 14.2 µM in test [2]; above 100 µM in test [3]; 23.8 µM in test [4]; 75.6 µM in test [5]; above 100 µM in test [6]. For the same compound, the TGI in test [7] and in test [8] was above 100 µM in each case.

`CCC(C)C1NC(=O)C(NC(=O)C(CC(C)C)N(C)C(=O)[C@@H]2CC(O)CN2C(=O)[C@H](C)O)C(C)OC(=O)[C@H](Cc2ccc(OC)cc2)N(C)C(=O)[C@@H]2CCCN2C(=O)[C@H](CC(C)C)NC(=O)C(C)C(=O)[C@H](C(C)C)OC(=O)CC1O` (stereo partly specified): the GI50 in test [1] is 0.0191 µM; in test [2] it was 0.0365 µM; in test [3], 0.581 µM; in test [4], below 0.01 µM; in test [5], below 0.01 µM; in test [6], 0.0451 µM. Moreover, the GI50 in test [7] is below 0.01 µM; in test [8] it was 0.0189 µM. Moreover, the TGI was 1.4 µM and 0.312 µM in test [1]; 0.705 µM and 0.41 µM in test [2]; 5.65 µM in test [3]; 0.445 µM and 0.0574 µM in test [4]; 0.342 µM and 0.206 µM in test [5]; 1.7 µM and 1.04 µM in test [6]. The TGI in test [7] is 1.01 µM and 1.6 µM; in test [8], above 100 µM.

With `O=C(Nc1cccc(-n2cc(-c3ccncc3)c(-c3ccc(Cl)c(O)c3)n2)c1)Nc1ccc(Cl)c(Cl)c1`, the GI50 in test [1] was 1.77 µM; in test [2], 1.1 µM; in test [3], 1.25 µM; in test [4] it was 0.57 µM; in test [5], 1.03 µM; in test [6], 1.49 µM. For the same compound, the GI50 in test [7] was 1.19 µM; in test [8] it was 1.14 µM. In addition, the TGI was above 32.5 µM in test [1]; 6.05 µM in test [2]; above 32.5 µM in test [3]; 1.16 µM in test [4]; 2.64 µM in test [5]; 10.9 µM in test [6]. Besides, the figures for the TGI in test [7] and in test [8] were 5.73 µM and 15 µM, respectively.

(Values after PubChem BioAssay (NCI).)
